US5795907A, “Gastin and CCK receptor ligands” (James Black Foundation Limited, priority 1994, dated 1998)

Experiments:
CCKA = target: T1, CCKA (Cavia porcellus, UniProt Q63931); experiment: CCKA radioligand binding assay in guinea-pig pancreas membranes ([125I]-CCK8(S)); settings: PD134,308 present, 150 minutes at 21±3°; for Ki: read-out: CCKA pKi (converted)
T1 construct: The pancreatata were homogenised in 40 ml ice-cold HEPES buffer using a polytron; from tissue; host or cells: pancreas membranes of male Dunkin Hartley guinea-pigs
T1 sequence (Q63931 1-430): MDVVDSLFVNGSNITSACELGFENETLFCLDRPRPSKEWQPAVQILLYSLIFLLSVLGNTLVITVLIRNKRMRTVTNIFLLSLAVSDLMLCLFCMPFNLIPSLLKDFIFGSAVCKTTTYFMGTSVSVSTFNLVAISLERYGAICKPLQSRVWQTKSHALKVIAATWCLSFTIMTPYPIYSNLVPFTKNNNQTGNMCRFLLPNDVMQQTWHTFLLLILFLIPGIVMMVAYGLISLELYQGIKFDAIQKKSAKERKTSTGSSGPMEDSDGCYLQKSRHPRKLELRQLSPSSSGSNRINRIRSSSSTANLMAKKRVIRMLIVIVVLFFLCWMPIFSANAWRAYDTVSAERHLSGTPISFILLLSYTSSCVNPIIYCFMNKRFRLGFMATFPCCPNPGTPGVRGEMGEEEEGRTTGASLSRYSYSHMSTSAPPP
Procedure, shortened: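 Competition for [125I]-CCK8(S) (added as […] solution) ran for 150 min at 21±3° in HEPES pH 7.2. Membranes came from male guinea-pig pancreas at 1 mg/ml original wet weight, with 0.375 μM PD134,308 in the suspension. Filter-bound counts were gamma-counted; 100 nM L-364,718 (added solution) defined non-specific binding.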

CCKB receptor = target: T2, CCKB receptor (Mus musculus, UniProt P56481); experiment: CCKB receptor radioligand binding assay in mouse cortical membranes ([125I]-CCK8S); settings: [125I]-CCK8S 200 pM, 150 min at 21±3°; for Ki: read-out: CCKB pKi (converted)
T2 construct: The cortex was dissected, weighed and homogenised in 40ml ice-cold buffer; tissue Charles River (supplier of the CD1 mice); host or cells: cerebral cortex membranes of male CD1 mice
T2 sequence (P56481 1-453): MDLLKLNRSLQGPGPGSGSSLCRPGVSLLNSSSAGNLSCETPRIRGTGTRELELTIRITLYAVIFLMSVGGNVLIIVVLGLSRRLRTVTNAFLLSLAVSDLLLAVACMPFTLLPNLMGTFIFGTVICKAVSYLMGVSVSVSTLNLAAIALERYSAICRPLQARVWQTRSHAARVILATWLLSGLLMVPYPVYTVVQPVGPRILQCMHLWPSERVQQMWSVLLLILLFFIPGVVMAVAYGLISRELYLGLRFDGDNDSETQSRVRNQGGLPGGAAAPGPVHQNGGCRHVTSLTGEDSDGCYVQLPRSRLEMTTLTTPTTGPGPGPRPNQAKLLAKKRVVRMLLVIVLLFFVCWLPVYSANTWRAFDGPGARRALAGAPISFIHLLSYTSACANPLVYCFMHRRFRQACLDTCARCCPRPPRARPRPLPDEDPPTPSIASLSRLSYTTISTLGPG
Procedure, shortened: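 This was competition binding with tracer [125I]-CCK8S (200 pM solution added), run for 150 min at 21±3° on male CD1 mouse cortex membranes in pH 7.2 HEPES buffer with bacitracin. Filtration then gamma counting gave bound radioactivity. L-365,260 set the non-specific level.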

gastrin = target: T3, gastrin (Rattus norvegicus, UniProt P30553); experiment: gastrin antagonist activity in an immature rat stomach assay (pentagastrin-stimulated acid secretion); settings: cumulative pentagastrin dose-response curves after 60 min with drug; for Kb: read-out: Gastrin pKB (converted)
T3 construct: The stomach was lowered into a jacketed organ bath containing 40 ml of buffered solution; from tissue; host or cells: isolated perfused whole stomach of immature rats (ca. 21 days old)
T3 sequence (P30553 1-452): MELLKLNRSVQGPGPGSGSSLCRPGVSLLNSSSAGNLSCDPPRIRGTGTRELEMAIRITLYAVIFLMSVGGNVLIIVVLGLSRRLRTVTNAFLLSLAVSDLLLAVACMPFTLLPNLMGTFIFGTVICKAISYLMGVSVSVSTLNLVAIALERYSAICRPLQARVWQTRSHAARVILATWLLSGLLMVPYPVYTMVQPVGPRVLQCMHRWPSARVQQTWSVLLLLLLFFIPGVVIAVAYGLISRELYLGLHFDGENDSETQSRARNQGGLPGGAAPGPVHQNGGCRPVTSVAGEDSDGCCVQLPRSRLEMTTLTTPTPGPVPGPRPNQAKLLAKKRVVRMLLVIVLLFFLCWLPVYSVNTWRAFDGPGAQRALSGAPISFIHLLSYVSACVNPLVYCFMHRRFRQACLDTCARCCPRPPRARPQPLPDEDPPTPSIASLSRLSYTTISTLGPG
Method: The compounds of the examples were also tested for gastrin antagonist activity in an immature rat stomach assay. The procedure was as follows:
The oesophagus of immature rats (33-50 g, ca. 21 days old) was ligated at the level of the cardiac sphincter and the duodenal sphincter was cannulated. The stomach was excised and flushed with ca. 1 ml of unbuffered physiological saline solution. The fundus was punctured and cannulated. A further 4-5 ml of unbuffered solution was flushed through the stomach to ensure the preparation was not leaking. The stomach was lowered into a jacketed organ bath containing 40 ml of buffered solution containing 3×10^-8 M 5-methylfurmethide, maintained at 37° and gassed vigorously with 95% O2 /5% CO2. The stomach was continuously perfused at a rate of 1 ml min^-1 with unbuffered solution gassed with 100% O2 with the perfusate passing over an internally referenced pH-electrode fixed 12 cm above the stomach.
After 120 min of stabilisation the drugs were added directly to the serosal solution in the organ bath and after a further 60 min cumulative pentagastrin dose-response curves were started. Changes in acid secretion were monitored and the curves analysed according to Black et.al., Br. J. Pharmacol., 1985, 86, 581.

| CCKA pKi (CCKA) | CCKB pKi (CCKB receptor) | Gastrin pKB (gastrin) | Ki (CCKA) [nM] | Ki (CCKB receptor) [nM] | Kb (gastrin) [nM] | Compound |
| --- | --- | --- | --- | --- | --- | --- |
| 5.7 | 7.8 | 7.8 |  |  |  | 5-(1S-(3,5-dicarboxyphenylaminocarbonyl)-2-phenylethylaminocarbonyl)-6-(1-adamantanemethyl-N-methylaminocarbonyl)-indole and regioisomer with substituents at positions 5 and 6 reversed [Example 41] |
| 5.2 | 7.6 | 9.1 |  |  |  | 5-(1S-(3,5-dicarboxyphenylaminocarbonyl)-2-(4-hydroxyphenyl)e thylaminocarbonyl)-6-(1-adamantanemethylaminocarbonyl)-indole and regioisomer with substituents at positions 5 and 6 reversed [Example 30] |
|  |  |  | 6310 | 3.98 | 2 | O=C(O)c1cc(NC(=O)[C@@H](Cc2ccccc2)NC(=O)c2cc3[nH]cnc3cc2C(=O)NCC23CC4CC(CC(C4)C2)C3)cc(C(=O)O)c1 [Example 61, 5-(1R-(3,5-dicarboxyphenylaminocarbonyl)-2-phenylethylaminocarbonyl)-6-(1-adamantanemethylaminocarbonyl)-benzimidazole] |
|  |  |  | > 10000 | 251 | 100 | O=C(O)c1cc(NC(=O)[C@@H]2CCCN2C(=O)c2cc3[nH]cnc3cc2C(=O)NCC23CC4CC(CC(C4)C2)C3)cc(C(=O)O)c1 [Example 77, 5-(2S-(3,5-dicarboxyphenylaminocarbonyl)-pyrrolidinocarbonyl)-6-(1-adamantanemethylaminocarbonyl)-benzimidazole] |
| 5.3 | 7.3 | 8.6 |  |  |  | O=C(O)c1ccc(C(=O)O)c(NC(=O)[C@H](Cc2ccccc2)NC(=O)c2cc3[nH]cnc3cc2C(=O)NCC23CC4CC(CC(C4)C2)C3)c1 [Example 78, 5-(1S-(2,5-dicarboxyphenylaminocarbonyl)-2-phenylethylaminocarbonyl)-6-(1-adamantanemethylaminocarbonyl)-benzimidazole] |
| 5.8 | 8.2 | 8.3 |  |  |  | 3-(1S-(3,5-dicarboxyphenylaminocarbonyl)-2-phenylethylaminocarbonyl)-2-(1-adamantanemethylaminocarbonyl)-5-nitronaphthalene and its regioisomer with groups at positions 2 and 3 reversed [Example 55] |
|  |  |  | 2510 | 3.98 | 3.98 | Cn1ccc2cc(C(=O)NCC34CC5CC(CC(C5)C3)C4)c(C(=O)N[C@@H](Cc3ccccc3)C(=O)Nc3cc(C(=O)O)cc(C(=O)O)c3)cc21 [Example 37, 6-(1S-(3,5-dicarboxyphenylaminocarbonyl)-2-phenylethylaminocarbonyl)-5-(1-adamantanemethylaminocarbonyl)-N-methyl-indole] |
|  |  |  | 5010 | 398 | 100 | C[C@H](NC(=O)c1cc2[nH]cnc2cc1C(=O)NCC12CC3CC(CC(C3)C1)C2)C(=O)Nc1cc(C(=O)O)cc(C(=O)O)c1 [Example 71, 5-(1S-(3,5-dicarboxyphenylaminocarbonyl)-ethylaminocarbonyl)-6-(1-adamantanemethylaminocarbonyl)-benzimidazole] |
|  |  |  | 794 | 7.94 | 2 | O=C(NO)c1cc(NC(=O)[C@H](Cc2ccccc2)NC(=O)c2cc3cc[nH]c3cc2C(=O)NCC23CC4CC(CC(C4)C2)C3)cc(C(=O)NO)c1 [Example 34, 5-(1S-(3,5-dihydroxyaminocarbonylphenylaminocarbonyl)-2-phenylethylaminocarbonyl)-6-(1-adamantanemethylaminocarbonyl)-indole] |
|  |  |  | 3160 | 794 | 126 | COC(=O)c1cc(NC(=O)[C@H](Cc2ccccc2)NC(=O)c2cc3[nH]cnc3cc2C(=O)NCC23CC4CC(CC(C4)C2)C3)cc(C(=O)OC)c1 [Example 81, 5-(1S-(3,5-dimethoxycarbonylphenylaminocarbonyl)-2-phenylethylaminocarbonyl)-6-(1-adamantane-methylaminocarbonyl)-benzimidazole] |
|  |  |  | 1260 | 25.1 | 31.6 | O=C(O)c1ccc(Cl)c(NC(=O)[C@H](Cc2ccccc2)NC(=O)c2cc3[nH]cnc3cc2C(=O)NCC23CC4CC(CC(C4)C2)C3)c1 [Example 127, 5-(1S-(^2-chloro-5-carboxyphenylaminocarbonyl)-2-phenylethylaminocarbonyl)-6-(1-adamantanemethylaminocarbonyl)-benzimidazole] |
|  |  |  | 3160 | 631 | 100 | C[C@H](NC(=O)c1cc2[nH]ccc2cc1C(=O)NCC12CC3CC(CC(C3)C1)C2)C(=O)Nc1cc(C(=O)O)cc(C(=O)O)c1 [Example 48, 6-(1S-(3,5-dicarboxyphenylaminocarbonyl)-ethylaminocarbonyl)-5-(1-adamantanemethylaminocarbonyl)-indole] |
| 5.6 | 8.7 | 8.7 |  |  |  | CC(=O)n1ccc2cc(C(=O)N[C@@H](Cc3ccccc3)C(=O)Nc3cc(C(=O)O)cc(C(=O)O)c3)c(C(=O)NCC34CC5CC(CC(C5)C3)C4)cc21 [Example 44, 5-(1S-(3,5-dicarboxyphenylaminocarbonyl)-2-phenylethylaminocarbonyl)-6-(1-adamantanemethylaminocarbonyl)-N-acetyl-indole] |

| Compound | CCKA pKi (CCKA) | CCKB pKi (CCKB receptor) | Gastrin pKB (gastrin) | Ki (CCKA) [nM] | Ki (CCKB receptor) [nM] | Kb (gastrin) [nM] |
| --- | --- | --- | --- | --- | --- | --- |
| O=C(O)c1cc(NC(=O)[C@H](Cc2ccccc2)NC(=O)c2cc3cc[nH]c3cc2C(=O)NCC2CN3CCC2CC3)cc(C(=O)O)c1 (stereo partly drawn) [Example 108, 5-(1S-(3,5-dicarboxyphenylaminocarbonyl)-2-phenylethylaminocarbonyl)-6-(1-azabicyclo[2.2.2]oct-3-ylmethylaminocarbonyl)-indole] |  |  |  | > 10000 | 1260 | 794 |
| CC(=O)Oc1cc(OC(C)=O)c2cc(C(=O)NCC34CC5CC(CC(C5)C3)C4)c(C(=O)N[C@@H](Cc3ccccc3)C(=O)Nc3cc(C(=O)O)cc(C(=O)O)c3)cc2c1 [Example 54, 2-(1S-(3,5-dicarboxyphenylaminocarbonyl)-2-phenylethylaminocarbonyl)-3-(1-adamantanemethylaminocarbonyl)-5,7-diacetoxy-naphthalene] | 5.9 | 8.1 | 8.1 |  |  |  |
